Molecular target: T1, human FXR (NR1H4) (Homo sapiens, UniProt Q96RI1)
T1 construct: host or cells: CHO (Chinese hamster ovary) reporter cells
T1 sequence (Q96RI1 1-486): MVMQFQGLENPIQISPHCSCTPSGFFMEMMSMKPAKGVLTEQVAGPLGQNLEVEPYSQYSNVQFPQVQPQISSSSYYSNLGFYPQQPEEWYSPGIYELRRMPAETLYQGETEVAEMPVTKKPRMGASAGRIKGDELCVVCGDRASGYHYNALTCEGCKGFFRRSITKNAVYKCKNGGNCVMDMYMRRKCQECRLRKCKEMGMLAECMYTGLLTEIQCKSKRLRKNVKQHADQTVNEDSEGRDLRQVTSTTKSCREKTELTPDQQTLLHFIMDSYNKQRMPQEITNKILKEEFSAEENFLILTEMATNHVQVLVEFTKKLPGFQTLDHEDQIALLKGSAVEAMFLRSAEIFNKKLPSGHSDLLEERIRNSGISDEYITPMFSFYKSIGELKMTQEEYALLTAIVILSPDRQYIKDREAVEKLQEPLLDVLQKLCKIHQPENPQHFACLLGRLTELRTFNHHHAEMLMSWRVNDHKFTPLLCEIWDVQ
Assay: Human FXR (NR1H4) Assay (Gal4 promoter driven luciferase reporter assay in CHO cells)
Format: cell-based
Conditions: for EC50: CHO cells expressing human NR1H4, 22 hours incubation, potency ranges; for Emax: efficacy normalized to CDCA set as 100%, CHO cells expressing human NR1H4
Excerpt: Determination of a ligand mediated Gal4 promoter driven transactivati on to quantify ligand binding mediated activation of FXR. FXR Reporter Assay kit purchased from Indigo Bioscience (Catalogue number: IB00601) to determine the potency and efficacy of compound developed by Enanta that can induce FXR activation. The principle application of this reporter assay system is to quantify functional activity of human FXR. The assay utilizes non-human mammalian cells, CHO (Chinese hamster ovary) cells engineered to express human NR1H4 protein (referred to as FXR). Reporter cells also incorporate the cDNA encoding beetle luciferase which catalyzes the substrates and yields photon emission. Luminescence intensity of the reaction is quantified using a plate-reading luminometer, Envision. Reporter Cells include the luciferase reporter gene functionally linked to an FXR responsive promoter. Thus, quantifying changes in luciferase expression in the treated reporter cells provides a sensitive surrogate measure of the changes in FXR activity. EC50 and efficacy (normalize to CDCA set as 100%) is determined by XLFit. The assay is according to the manufacturer's instructions. In brief, the assay was performed in white, 96 well plates using final volume of 100 ul containing cells with different doses of compounds. Retrieve Reporter Cells from −80° C. storage. Perform a rapid thaw of the frozen cells by transferring a 10 ml volume of 37° C. cell recovery medium into the tube of frozen cells. Recap the tube of Reporter Cells and immediately place it in a 37° C. water bath for 5-10 minutes. Retrieve the tube of Reporter Cell Suspension from the water bath. Sanitize the outside surface of the tube with a 70% alcohol swab, and then transfer it into the cell culture hood. Dispense 90 μl of cell suspension into each well of the 96-well Assay Plate. Transfer the plate into 37° C. incubator, allowing the cells adherent to the bottom of the well. Dilute compounds in Dilution Plate (DP), and administrate to cells at Assay Plate (AP). DMSO content of the samples was kept at 0.2%. Cells were incubated for additional 22 hours before luciferase activities were measured. Thirty minutes before intending to quantify FXR activity, remove Detection Substrate and Detection Buffer from the refrigerator and place them in a low-light area so that they may equilibrate to room temperature. Remove the plate's lid and discard all media contents by ejecting it into an appropriate waste container. Gently tap the inverted plate onto a clean absorbent paper towel to remove residual droplets. Cells will remain tightly adhered to well bottoms. Add 100 μl of luciferase detection reagent to each well of the assay plate. Allow the assay plate to rest at room temperature for at least 5 minutes following the addition of LDR. Set the instrument (Envision) to perform a single 5 second “plate shake” prior to reading the first assay well. Read time may be 0.5 second (500 mSec) per well. EC50 and Efficacy (normalize to CDCA set as 100%) is determined by XLFit.
The efficacy was normalized to CDCA set as 100%. (A=EC50<0.1 μM; B=0.1 μM<EC50<1.0 μM; C=1.0 μM<EC50<10 μM; D=EC50>10 μM).

For `CC(C)Oc1cc(C(=O)O)cc2sc(N(C)[C@@H]3CC[C@H](OCc4c(-c5c(Cl)cccc5Cl)noc4C4CC4)C3)nc12` [Example 1], the EC50 was < 100 nM and the Emax was 96%.
`CC(C)Oc1cc(C(=O)O)cc2sc(N(C)[C@H]3CC[C@@H](OCc4c(-c5c(Cl)cccc5Cl)noc4C4CC4)C3)nc12` [Example 2] was tested, and the EC50 was < 100 nM and the Emax was 75%.
`CC(C)Oc1cc(C(=O)O)cc2sc(N(C)[C@H]3CC[C@H](OCc4c(-c5c(Cl)cccc5Cl)noc4C4CC4)C3)nc12` [Example 3] showed an EC50 of 100 to 1000 nM and an Emax of 58%.
`CC(C)Oc1cc(C(=O)O)cc2sc(N(C)[C@@H]3CC[C@@H](OCc4c(-c5c(Cl)cccc5Cl)noc4C4CC4)C3)nc12` [Example 4] was tested, and the EC50 was 100 to 1000 nM and the Emax was 73%.
`CC(C)Oc1cc(C(=O)O)cc2sc(N(C)[C@H]3CC[C@H](OCc4c(-c5c(Cl)cccc5Cl)noc4C4CC4)CC3)nc12` [Example 5] was tested, and the EC50 was < 100 nM and the Emax was 85%.
`CC(C)Oc1cc(C(=O)O)cc2sc(N(C)[C@@H]3CC[C@H](OCc4c(-c5ccccc5OC(F)(F)F)noc4C4CC4)C3)nc12` [Example 6] was tested, and the EC50 was < 100 nM and the Emax was 67%.
In the case of `CN(c1ccc2cc(C(=O)O)ccc2n1)[C@@H]1CC[C@H](OCc2c(-c3ccccc3OC(F)(F)F)noc2C2CC2)C1` [Example 7], the EC50 is reported as < 100 nM and the Emax is reported as 57%.
In the case of `CC(C)Oc1cc(C(=O)O)cc2sc(N[C@@H]3CC[C@H](OCc4c(-c5c(Cl)cccc5Cl)noc4C4CC4)C3)nc12` [Example 8], the EC50 is reported as < 100 nM and the Emax is reported as 99%.
`O=C(O)c1cc(F)c2nc(N[C@@H]3CC[C@H](OCc4c(-c5c(Cl)cccc5Cl)noc4C4CC4)C3)sc2c1` [Example 9] was tested, and the EC50 was < 100 nM and the Emax was 104%.
`O=C(O)c1cc(F)c2nc(N[C@@H]3CCC(OCc4c(-c5ccccc5OC(F)(F)F)noc4C4CC4)C3)sc2c1` (stereo partly drawn) [Example 10] was tested, and the EC50 was < 100 nM and the Emax was 81%.
With `CC(C)Oc1cc(C(=O)O)cc2sc(N[C@@H]3CC[C@H](OCc4c(-c5ccccc5OC(F)(F)F)noc4C4CC4)C3)nc12` [Example 11] the EC50 was < 100 nM and the Emax was 92%.
For `CC(C)Oc1cc(C(=O)O)cc2sc(N[C@H]3CC[C@@H](OCc4c(-c5c(Cl)cccc5Cl)noc4C4CC4)CC3)nc12` [Example 14, 2-(((1s,4s)-4-((5-cyclopropyl-3-(2,6-dichlorophenyl)isoxazol-4-yl)methoxy)cyclohexyl)amino)-4-isopropoxybenzo[d]thiazole-6-carboxylic acid], the EC50 was < 100 nM and the Emax was 84%.
With `CC(C)Oc1cc(C(=O)O)cc2sc(N(C)[C@H]3CC[C@@H](OCc4c(-c5c(Cl)cccc5Cl)noc4C4CC4)CC3)nc12` [Example 15, 2-(((1s,4s)-4-((5-cyclopropyl-3-(2,6-dichlorophenyl)isoxazol-4-yl)methoxy)cyclohexyl)(methyl)amino)-4-isopropoxybenzo[d]thiazole-6-carboxylic acid] the EC50 was < 100 nM and the Emax was 65%.
With `O=C(O)c1cc(F)c2nc(N[C@H]3CC[C@@H](OCc4c(-c5c(Cl)cccc5Cl)noc4C4CC4)CC3)sc2c1` [Example 16] the EC50 was 100 to 1000 nM and the Emax was 24%.
For `CC(C)Oc1cc(C(=O)O)cc2sc(N[C@H]3CC[C@@H](OCc4c(-c5ccccc5OC(F)(F)F)noc4C4CC4)CC3)nc12` [Example 17], the EC50 was < 100 nM and the Emax was 91%.
With `O=C(O)c1ccc2nc(N[C@H]3CC[C@@H](OCc4c(-c5c(Cl)cccc5Cl)noc4C4CC4)CC3)sc2c1` [Example 18] the EC50 was < 100 nM and the Emax was 52%.
For `O=C(O)c1ccc2nc(N[C@@H]3CCC(OCc4c(-c5c(Cl)cccc5Cl)noc4C4CC4)C3)sc2c1` (stereo partly drawn) [Example 19], the EC50 was 100 to 1000 nM and the Emax was 116%.
`CC(C)Oc1cc(C(=O)NS(=O)(=O)C2CC2)cc2sc(N[C@@H]3CCC(OCc4c(-c5c(Cl)cccc5Cl)noc4C4CC4)C3)nc12` (stereo partly drawn) [Example 20] showed an EC50 of 100 to 1000 nM and an Emax of 111%.

— patent US10829486B2, “Isoxazole derivatives as FXR agonists and methods of use thereof” (ENANTA PHARMACEUTICALS, INC., priority 2018, dated 2020)
